Reference: patent US10478407B2, “Pharmaceutical composition for viral infections” (The Administrators of the Tulane Educational Fund, priority 2018, dated 2019)

Columns and labels:
[1] = test system: Herpes simplex virus type 1, ATCC VR-733, Strain F(1); assay: Virucidal suspension test of solutions A-18 to D-18 against HSV-1, Vero indicator cells (Example 18); assay type: cell-based; conditions: for viral inhibitory effect: comparable concentrations
Description: (§1) A suspension of virus was exposed to the use dilutions of the products. At the end of the exposure time, an aliquot was removed, neutralized by serial dilution, and assayed for the presence of virus. The virus controls, cytotoxicity controls, and neutralization controls were assayed in parallel. Antiviral properties of the solutions were evaluated and compared at the specified concentrations and time intervals.
Dilutions: 1:5 defined as 1 ml test substance+4 parts sterile PBS=0.2 mg/ml
• 1:10 defined as 1 ml test substance+9 parts sterile PBS=0.1 mg/ml • 1:15 defined as 1 ml test substance+14 parts sterile PBS=0.07 mg/ml • 1:20 defined as 1 ml test substance+19 parts sterile PBS=0.05 mg/ml • 1:25 defined as 1 ml test substance+24 parts sterile PBS=0.04 mg/ml Virus: Herpes simplex virus type 1, ATCC VR-733, Strain F(1) Exposure Time: 30 minutes Exposure Temperature: Room temperature (22.0° C.) Organic Soil Load: 1% fetal bovine serum Test Medium: Minimum Essential Medium (MEM) supplemented with 5% (v/v) heat-inactivated fetal bovine serum (FBS), […], 100 units/ml penicillin, and 2.5 μg/ml amphotericin B. Indicator Cell Cultures: Vero Results
A similar experiment was run with 15 minutes contact time. The graphical representation can be seen in FIG. 6.

[2] = test system: Ebola virus (Zaire 76); conditions: 5 μg/ml; FIG. 17
[3] = test system: Herpes simplex virus type 1, ATCC VR-733, Strain F(1); assay: Virucidal suspension test of solutions A-17 and B-17 against HSV-1, Vero indicator cells (Example 17); assay type: cell-based
Description: as §1, with “each pre-determined” for “end of the”, “time” for “time,”
Dilutions: FS (undiluted) defined as 1 ml test substance+0 ml PBS
• 1:10 defined as 1 ml test substance+9 ml PBS • 1:100 defined as 1 ml of the 1:10 dilution+9 ml PBS Virus: Herpes simplex virus type 1, ATCC VR-733, Strain F(1) Exposure Time: 15 minutes and 60 minutes Exposure Temperature: Room temperature (22.0° C.) Organic Soil Load: 1% fetal bovine serum Test Medium: Minimum Essential Medium (MEM) supplemented with 5% (v/v) heat-inactivated fetal bovine serum (FBS), 10 μg/ml gentamicin, 100 units/ml penicillin, and 2.5 μg/ml amphotericin B. Indicator Cell Cultures: Vero Results

[4] = 15 minutes contact time, FIG. 6
[5] = dilution 1:5 = 0.2 mg/ml, 30 minutes exposure, 22.0° C.
[6] = dilution 1:10 = 0.1 mg/ml, 30 minutes exposure
[7] = dilution 1:15 = 0.07 mg/ml, 30 minutes exposure
[8] = dilution 1:20 = 0.05 mg/ml, 30 minutes exposure
[9] = dilution 1:25 = 0.04 mg/ml, 30 minutes exposure
[10] = FS (undiluted), 15 minutes exposure, 22.0° C., stock A-17 1 mg/mL, B-17 10 mg/mL
[11] = FS (undiluted), 60 minutes exposure
[12] = dilution 1:10, 15 minutes exposure
[13] = dilution 1:10, 60 minutes exposure
[14] = dilution 1:100, 15 minutes exposure
[15] = dilution 1:100, 60 minutes exposure

Substance	viral inhibitory effect [1, 4]	% Reduction [1, 5]	Log10 Reduction [1, 5]	% Reduction [1, 6]	Log10 Reduction [1, 6]	% Reduction [1, 7]	Log10 Reduction [1, 7]	% Reduction [1, 8]	Log10 Reduction [1, 8]	% Reduction [1, 9]	Log10 Reduction [1, 9]	other results
C12-alkyl(ethylbenzyl) dimethylammonium chloride [Formulation A-18]	complete inactivation	≥99.997%	≥4.5 log10	99.4%	2.25 log10	98.2%	1.75 log10	96.8%	1.5 log10	90.0%	1 log10	% Reduction [1, 4]: 99.997%; log10 reduction [1, 4]: 6.75 log10
C14-alkyl(ethylbenzyl) dimethylammonium chloride [Formulation B-18]		94.4%	1.24 log10	43.8%	0.25 log10	No Reduction	No Reduction	No Reduction	No Reduction	No Reduction	No Reduction	
C12-alkyl(ethylbenzyl) dimethylammonium chloride												deactivation of Ebola virus [2]: Complete deactivation
benzalkonium chloride [Formulation C-18, reference compound]	no viral inhibitory effect	43.8%	0.25 log10	No Reduction	No Reduction	No Reduction	No Reduction	No Reduction	No Reduction	No Reduction	No Reduction	
benzalkonium chloride [Formulation B-17]												% reduction in viral titer [3, 10]: ≥ 99.99%; log10 reduction in viral titer [3, 10]: ≥ 4.00 log10; % reduction in viral titer [3, 11]: ≥ 99.98%; log10 reduction in viral titer [3, 11]: ≥ 3.75 log10; % reduction in viral titer [3, 12]: ≥ 99.999%; log10 reduction in viral titer [3, 12]: ≥ 5.00 log10; % reduction in viral titer [3, 13]: ≥ 99.998%; log10 reduction in viral titer [3, 13]: ≥ 4.75 log10; % reduction in viral titer [3, 14]: 90.0%; log10 reduction in viral titer [3, 14]: 1 log10; % reduction in viral titer [3, 15]: 99.7%; log10 reduction in viral titer [3, 15]: 2.5 log10
